Experiments:
recombinant human SK1 = target: T1, recombinant human SK1 (Homo sapiens, UniProt Q9NYA1); experiment: SK activity assay, recombinant human SK1 (ADP-Quest; HPLC assay for SKI-II); assay type: biochemical; details: for IC50: sphingosine 10 µM, read-out: IC50 for inhibition of SK1; for IC50 / Ki: ADP-Quest (SKI-II: HPLC assay); for Ki: recombinant human SK1, mean ± SEM of three independent experiments; for mode of inhibition of SK1: substrate competition, Lineweaver-Burk plots
T1 construct: purchased BPS Biosciences
T1 sequence (Q9NYA1 whole entry): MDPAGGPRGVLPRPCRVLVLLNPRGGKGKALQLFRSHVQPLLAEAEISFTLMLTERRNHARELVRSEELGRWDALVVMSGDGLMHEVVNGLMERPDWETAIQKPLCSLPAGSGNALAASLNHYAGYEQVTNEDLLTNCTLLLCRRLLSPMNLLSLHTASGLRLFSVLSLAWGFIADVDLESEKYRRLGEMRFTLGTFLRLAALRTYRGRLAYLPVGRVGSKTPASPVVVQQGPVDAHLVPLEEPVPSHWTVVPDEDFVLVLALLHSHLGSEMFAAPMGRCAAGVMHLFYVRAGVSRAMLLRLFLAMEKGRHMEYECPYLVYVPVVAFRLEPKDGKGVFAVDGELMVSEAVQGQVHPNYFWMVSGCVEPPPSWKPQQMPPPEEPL
Procedure: (§3) The enzymatic activities of recombinant human SK1 or SK2 (purity ≥74% by coomassie staining for each isozyme, BPS Biosciences) were measured using the ADP-Quest kinase assay kit (DiscoveRX Corporation, Fremont, CA) as previously described [34]. […] The reactions were maintained in initial velocity conditions (<5% of the substrate consumed), and data was fitted to the Michaelis–Menten equation by nonlinear regression (Prism 5 for Windows, GraphPad Software). […] For substrate competition analyses, a series of sphingosine concentrations were used and Lineweaver–Burk plots were constructed to define the mode of inhibition.

SK2 mRNA = SK2 mRNA expression by quantitative PCR in A498 cells; assay type: cell-based; details: inhibitor at its IC50, 48 hr
Procedure: (§1) To assess proliferation, cells were treated with the SK inhibitors for the indicated times, and cell numbers were quantified using the sulforhodamine assay. Expression levels of SK1 and SK2 were measured by quantitative PCR using GAPDH for normalization, as previously described. […] The cell pellets were subjected to sphingolipid profiling by HPLC-MS by the Lipidomics Core Facility at MUSC as described elsewhere. […] For migration assays, 50,000 cells were placed in each cell culture insert (24-well format, 8 µm pore size, BD Biosciences) for 1 hr at room temperature. For invasion assays, matrigel pre-coated inserts were used as previously described. In both cases, inserts were placed into 24-well plates with 0.3 ml of 10%-serum-containing medium having the same concentration of the inhibitor as the insert. Cells were cultured for 4 hr for migration or 24 hr for invasion assays, and the number of cells that migrated to the underside of the inserts was determined by crystal violet staining as previously described.
(§2) Figure 5 Biochemical and phenotypic effects of SK inhibitors. A ) Cytotoxicity - After treatment with varying concentrations of the SK inhibitors for the indicated time periods, cell numbers were quantified. […] B ) SK expression - After SK inhibitor treatment, mRNAs for SK1 (open bars) and SK2 (filled bars) compared to the vehicle controls (DMSO-treated cells) were calculated. C ) Sphingolipid profiling – After SK inhibitor treatment, cells were harvested and sphingolipids were analyzed by mass spectrometric. The bars represent the ratio of the amount of the indicated lipids in drug treated cells compared with control cells. Abbreviations are: C26-ceramide (C26-Cer), C24-ceramide (C24-Cer), C20-ceramide (C20-Cer), C18-ceramide (C18-Cer), C16-ceramide (C16-Cer), sphingosine (Sph) and dihydrosphingosine (dhSph). D ) Cell cycle distribution – After SK inhibitor treatment, cells were harvested and analyzed by flow cytometry. The bars indicate the percentage of cells in each of the indicated cell cycle phases. E ) Cell migration and invasion – After SK inhibitor treatment, cells were harvested and migration, through unmodified filters (open bars) and invasion through Matrigel-coated filters (filled bars), were analyzed. The bars indicate the percentage of cells that had migrated compared to control cells. Data are the mean ± SEM of three independent experiments. *p<0.05, **p<0.01, ***p<0.001 versus control.

recombinant human SK2 = target: T2, recombinant human SK2 (Homo sapiens, UniProt Q9NRA0); experiment: SK activity assay, recombinant human SK2 (ADP-Quest; HPLC assay for SKI-II); assay type: biochemical; details: for Ki: recombinant human SK2, mean ± SEM of three independent experiments; for Ki / IC50: ADP-Quest (SKI-II: HPLC assay); for IC50: sphingosine 5 µM, read-out: IC50 for inhibition of SK2; for mode of inhibition of SK2: substrate competition, Lineweaver-Burk plots
T2 construct: purchased BPS Biosciences
T2 sequence (Q9NRA0 1-654): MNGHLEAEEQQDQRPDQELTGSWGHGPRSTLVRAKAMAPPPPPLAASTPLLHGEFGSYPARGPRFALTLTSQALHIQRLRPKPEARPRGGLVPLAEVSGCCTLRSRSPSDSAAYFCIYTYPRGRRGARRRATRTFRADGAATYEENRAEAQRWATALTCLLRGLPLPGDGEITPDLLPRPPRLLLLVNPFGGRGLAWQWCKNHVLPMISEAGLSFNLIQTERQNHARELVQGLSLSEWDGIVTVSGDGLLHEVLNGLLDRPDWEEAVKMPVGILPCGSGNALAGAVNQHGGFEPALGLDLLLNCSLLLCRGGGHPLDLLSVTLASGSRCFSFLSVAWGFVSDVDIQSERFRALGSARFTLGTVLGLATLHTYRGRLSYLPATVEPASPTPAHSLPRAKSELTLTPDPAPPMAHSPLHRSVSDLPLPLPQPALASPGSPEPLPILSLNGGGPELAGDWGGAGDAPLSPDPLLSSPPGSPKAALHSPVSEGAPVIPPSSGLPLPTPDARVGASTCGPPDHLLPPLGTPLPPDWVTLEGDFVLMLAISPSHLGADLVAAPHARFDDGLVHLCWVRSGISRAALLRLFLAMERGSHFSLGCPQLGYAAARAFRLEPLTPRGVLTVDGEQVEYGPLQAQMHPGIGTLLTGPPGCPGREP
Procedure: as §3

[1] = tested on: A498 kidney adenocarcinoma cells; experiment: Cell cycle distribution by flow cytometry; assay type: cell-based; details: inhibitor at its IC50, 48 hr
Procedure: as §2

[2] = tested on: STAT3, AKT, ERK, p21, p53, FAK, Beclin1, LC3 in A498 cells; experiment: Western blot of signaling proteins in A498 cells; assay type: cell-based; details: inhibitor at its IC50, 48 hours
Procedure: Following treatment with the SK inhibitors, cells were washed, harvested and lysed, and supernatants were prepared and protein concentrations were determined as previously described. Immunoblotting was carried out with the following primary antibodies (Cell Signaling): AKT, pAKT, ERK1/2, pERK1/2, STAT3, pSTAT3, p21, p53, FAK, pFAK(Y397), Beclin1, LC3, β-actin; and corresponding HRP-conjugated anti-rabbit or anti-mouse secondary antibodies, and immunocomplexes were visualized by the chemiluminescence. Protein expression was quantified by densitometric scanning of the BIOMAX XAR films after normalization to β-actin using the program NIH ImageJ.
Figure 6 Effects of SK inhibitors on signaling proteins. […] Figures are representative blots of at least three independent experiments. B ) Immunoblotting was conducted with the indicated antibodies, and densitometric quantification was done using Image J. Relative expression is represented as the ratio to control after normalization to β-actin.

[3] = tested on: A498 kidney adenocarcinoma cells; experiment: Sphingolipid profiling by HPLC-MS in A498 cells; assay type: cell-based; details: inhibitor at its IC50, 48 hr
Procedure: as §1, §2

[4] = tested on: A498 kidney adenocarcinoma cells; experiment: Proliferation / cytotoxicity, sulforhodamine assay; assay type: cell-based; details: Homo sapiens, A498, 48 h, read-out: IC50, concentration that reduces cell number by 50%
Procedure: (§4) To assess proliferation, cells were treated with the SK inhibitors for the indicated times, and cell numbers were quantified using the sulforhodamine assay [38]. […] For migration assays, 50,000 cells were placed in each cell culture insert (24-well format, 8 µm pore size, BD Biosciences) for 1 hr at room temperature. For invasion assays, matrigel pre-coated inserts were used as previously described [17]. In both cases, inserts were placed into 24-well plates with 0.3 ml of 10%-serum-containing medium having the same concentration of the inhibitor as the insert. Cells were cultured for 4 hr for migration or 24 hr for invasion assays, and the number of cells that migrated to the underside of the inserts was determined by crystal violet staining as previously described [17].
(§5) A ) Cytotoxicity - After treatment with varying concentrations of the SK inhibitors for the indicated time periods, cell numbers were quantified. […] E ) Cell migration and invasion – After SK inhibitor treatment, cells were harvested and migration, through unmodified filters (open bars) and invasion through Matrigel-coated filters (filled bars), were analyzed. […] Data are the mean ± SEM of three independent experiments. *p<0.05, **p<0.01, ***p<0.001 versus control.

[5] = tested on: A498 kidney adenocarcinoma cells; experiment: Serum-induced migration and invasion (Matrigel) assays; assay type: cell-based; details: inhibitor at its IC50, 48 hr pretreatment, compared with SK1-selective CB5468139
Procedure: as §4, §5

SK1 mRNA = SK1 mRNA expression by quantitative PCR in A498 cells; assay type: cell-based; details: inhibitor at its IC50, 48 hr
Procedure: as §1, §2

[6] = tested on: panel of 65 protein kinases; experiment: Kinase profiling, KinaseSeeker assay; details: 2 µM compound; 65 protein kinases tested
Procedure: The inhibitory effects of CB5468139 (2 µM) on the indicated protein kinases were tested using KinaseSeeker assay technology (Luceome Biotech. LLC).

[7] = 100 µM ATP, sphingosine 1.25 to 20 µM, initial velocity conditions

IC50 (recombinant human SK1) [µM] | IC50 (recombinant human SK2) [µM] | mode of inhibition of SK2 (recombinant human SK2) | mode of inhibition of SK1 (recombinant human SK1) | Compound | SK2 mRNA level compared to vehicle control (SK2 mRNA) | Ki (recombinant human SK2) [µM] | effect on cell cycle distribution [1] | pFAK(Y397) / FAK [2] | protein levels of p53 and p21 [2] | decrease of intracellular S1P compared to control [3] | IC50 [4] [µM] | SK1 mRNA level compared to vehicle control (SK1 mRNA) | other results
> 100 | ~40 | sphingosine-competitive inhibitor |  | O=C(NCc1ccncc1)C12CC3CC(C1)CC(c1ccc(Cl)cc1)(C3)C2 [ABC294640] | strongly increased | 9.3 | distinct G1 arrest with significant decreases in both S and G2/M phases | strongly down-regulated | decreased the protein levels of p53 and p21 | over 90% | 40 | approximately 5 fold | ERK2 expression [2]: decreases of ERK2; STAT3 expression and activation (pSTAT3) [2]: largest decrease; expression of autophagy markers beclin1 and LC3 [2]: most pronounced increases; pAKT level [2]: decreased dramatically; levels of sphingosine [3]: dramatically decreased; total ceramides relative to control cells [3]: 2 times the level of control cells; serum-induced migration and invasion [5]: more strongly attenuated
~10 | ~10 | sphingosine-competitive inhibitor | sphingosine-competitive inhibitor | O=C(NCCc1ccc(O)c(O)c1)C12CC3CC(C1)CC(c1ccc(Cl)cc1)(C3)C2 [ABC294735] | Neither ABC294735 nor CB5468139 substantially altered the expression | 4.2 ± 0.6 | slightly increase the S phase percentage |  |  |  | 35 | Neither ABC294735 nor CB5468139 substantially altered the expression | Ki (recombinant human SK1): 3.1 ± 0.8 µM
~2 | > 100 |  | ATP mimetic | CC(=O)N(C1=C(Cl)C(=O)c2ccccc2C1=O)C1CCCCC1 [CB5468139] | Neither ABC294735 nor CB5468139 substantially altered the expression |  | slightly increase the S phase percentage | strongly down-regulated | reduced the expression of p53, but not p21 | less than 20% | 10 | Neither ABC294735 nor CB5468139 substantially altered the expression | Ki (recombinant human SK1): 0.28 ± 0.15 µM; protein kinases with ≥50% inhibition [6]: 12 of 65; increase of total ceramide levels [3]: 30–60%
 |  |  |  | CCCCCCCCCCCCC/C=C/[C@@H](O)[C@@H](N)CO [sphingosine] |  |  |  |  |  |  |  |  | Km (recombinant human SK1; [7]): 10 ± 0.45 µM; Km (recombinant human SK2; [7]): 5 ± 0.36 µM
> 100 | > 100 |  |  | diacylglycerol [DAG] |  |  |  |  |  |  |  |  | 

Compound | IC50 (recombinant human SK1) [µM] | IC50 (recombinant human SK2) [µM] | mode of inhibition of SK2 (recombinant human SK2) | mode of inhibition of SK1 (recombinant human SK1) | SK2 mRNA level compared to vehicle control (SK2 mRNA) | Ki (recombinant human SK2) [µM] | effect on cell cycle distribution [1] | pFAK(Y397) / FAK [2] | protein levels of p53 and p21 [2] | decrease of intracellular S1P compared to control [3] | IC50 [4] [µM] | SK1 mRNA level compared to vehicle control (SK1 mRNA) | other results
CCCCCCCCCCCCC/C=C/[C@@H](O)[C@H](CO)N(C)C [DMS, N,N-dimethyl-D-erythro-sphingosine, reference compound] |  | ~20 | competitive inhibition with respect to sphingosine | competitive inhibition with respect to sphingosine | only slightly increased | 14 | did not impact the cell cycle | not altered | essentially no affect |  | 5 | tripled | cells driven into apoptosis [1]: approximately 20%; effect on levels of ceramides [3]: little impact on the levels of most ceramides
Oc1ccc(Nc2nc(-c3ccc(Cl)cc3)cs2)cc1 [SKI-II, 2-(p-hydroxyanilino)-4-(p-chlorophenyl) thiazole, reference compound] |  | 20 |  |  | ~4 fold | 7.9 ± 0.6 | arrested cells in S phase with a concomitant decrease in the G2/M phase | strongly down-regulated | decreased the protein levels of p53 and p21 | over 90% | 20 | ~4 fold | ERK2 expression [2]: decreases of ERK2; increase of total ceramide levels [3]: 30–60%; levels of sphingosine [3]: dramatically decreased; serum-induced migration and invasion [5]: more strongly attenuated

From paper PMC3438171, “Characterization of Isoenzyme-Selective Inhibitors of Human Sphingosine Kinases” (PLoS ONE, 2012)
